How the values were obtained:
[1] = system: Eucalyptus seedlings (E. globulus); test: Field trial, height of treated Eucalyptus seedlings (growth effect); type: in vivo; settings: for Average height (cm): E. globulus seedlings
Description: (§1) A synergistic effect is always present when the growth effect of the combinations according to the invention exceed the total of the activities of the active compounds when applied individually. The expected activity for a given combination of two active compounds can be calculated as follows (cf. Colby, S.R., “Calculating Synergistic and Antagonistic Responses of Herbicide Combinations”, Weeds 15, (1967), 20-22): If • X is the growth effect when applying one compound selected from the class of agonists and antagonists of the nicotinic acetylcholine receptors at an application rate of m g/ha, • Y is the growth effect when applying fertilizer at an application rate of n g/ha and • E is the efficacy when applying the combination of A and B at an application rate of m and n g/ha, then [formula] The efficacy is calculated in %. 0% is an efficacy which corresponds to that of the control. If the actual growth effect exceeds the calculated value, then the activity of the combination is super additive, i.e. a synergistic effect exists. In this case, the efficacy which was actually observed must be greater than the value for the expected efficacy (E) calculated from the abovementioned formula. The trial was established using a Latin square design (4 treatments with 4 replications each) with 49 ligneous trees per plot for a total of 784 trees in the trial. Trees: Eucalyptus seedlings (E. globulus) The four treatments used were 1) control (nil treatment) 2) fertilizer only 3) insecticide (i.e. imidacloprid) only 4) insecticide (i.e. imidacloprid) plus fertilizer Bonitation of insect infestation and measurement of the height of the treated trees was done 7 months and 12 months after the trial has been started (start of trial: August 2003, bonitations: March 2004 and August 2004) All results are statistically evaluated having a significance level of 5% . Besides the mean value comparison the Fisher's PLSD test has been applied.

[2] = system: insect infestation; test: Field trial, bonitation of insect infestation (defoliation by insect damage) on Eucalyptus seedlings; type: in vivo
Description: as §1

[3] = Bonitation August 2004, 12 months after start of trial
[4] = Bonitation March 2004, 7 months after start of trial

SMILES: O=[N+]([O-])NC1=NCCN1Cc1ccc(Cl)nc1 [imidacloprid only, Imidacloprid]
- Height of tree (% of control) [1, 3]: 104 % of control
- Average height (cm) [1, 3]: 125 cm
- Height of tree (% of control) [1, 4]: 115 % of control
- Average height (cm) [1, 4]: 86 cm
- Average defoliation by insect damage (%) [2, 3]: 60%
- Efficacy according to Abbott (%) [2, 3]: 40%
- Average defoliation by insect damage (%) [2, 4]: 18%
- Efficacy according to Abbott (%) [2, 4]: 71%
